Data set [1] is described as follows: Mouse S9 metabolic stability assay. Type of data set: in vitro ADME. The conditions noted are these: co-incubated with mouse liver S9 enzymes, LC-MS; read-out: t1/2 in mouse liver S9. How it is done: To verify the metabolic stability of PS-2, PS-2 was co-incubated with mouse liver S9 enzymes and LC-MS was used to test the remaining amount of PS-2 compound. DD-03-171 was used as a control (FIG. 11).

The subject of data set [2] is Mino cells. The experiment in a line: cells. The conditions noted are these: Homo sapiens, 72 h, read-out: IC50, cell growth inhibition / cell viability, Mino cells, 72 h.
Excerpt: The cell viabilities were quantified using an Alarma Blue assay.
Dataset represents an average of n=3 replicates.
A further data set concerns the target T1, IKZF1 (Homo sapiens, UniProt Q13422+Q96SW2).
T1 construct: host or cells: Mino
Put plainly: TMT-based quantitative proteomics in Mino cells, IKZF1. Type of data set: cell-based. The settings on record: 200 nM, 4 h. How it is done: (§1) Panel a. […] Panel b. […] Panel c. […] Panel d-e. […] Panel g.
(§2) Two million of Mino cells were treated with DMSO or 200 nM of PS-2 for 4 hours in biological triplicates and cells were harvested by centrifugation (200×g, 4° C., 5 min). Lysis buffer (100 mM Triethylammonium bicarbonate (TEAB, Thermo Fisher Scientific, Cat. No. 90114), 2% SDS) was added to the cell pellets and homogenized with a microtip sonicator (Branson) to achieve a cell lysate with a protein concentration of ˜2 mg mL^−1. Protein concentration was determined using BCA assay (Pierce, Cat. No. 23225) and normalized to 1 mg mL^−1. One hundred μg of protein for each sample were reduced and alkylated with 10 mM Tris(2-carboxyethyl) phosphine hydrochloride (TCEP, Sigma, Cat. No. C4706) and 17 mM iodoacetamide (IAA, Sigma, Cat. No. 16125-5G), followed by digestion with trypsin (1:20, enzyme: protein, Thermo Fisher Scientific, Cat. No. 90058) for 16 h shaking at 37° C. […]
(§3) Next, tandem mass tagging (TMT)-based quantitative proteomic profiling was performed to evaluate the degradation specificity of PS-2. […] Quantitative proteomics employing TMT chemical labeling coupled with LC/MS/MS enabled the detection of >2,500 unique proteins without fractionation (FIG. 4f). […]

Another data set has as its target T2, IKZF3 (Homo sapiens, UniProt Q96SW2+Q9UKT9).
T2 construct: host or cells: Mino
The experiment in a line: TMT-based quantitative proteomics in Mino cells, IKZF3. Format: cell-based. The settings on record: 200 nM, 4 h. How it is done: as §1, §2, §3

The target of another data set is T3, His-BTK (Homo sapiens, UniProt Q06187).
T3 construct: purchased SignalChem B10-10H-10
The experiment in a line: TR-FRET competition binding assay with BTK-BODIPY tracer. The conditions noted are these: TRFRET assay, up to 100 μM. How it is done: Panels a-b. […] Panel c. […] Panel d. […] Panel e. […] Panel f.
Time-resolved fluorescence resonance energy transfer (TR-FRET) assay was carried out to evaluate the binding of indicated compounds and BTK by competition with a BODIPY-FL labeled BTK tracer (See FIG. 1, BTK TR-FRET tracer). The assay was performed in 20 μL assay buffer (50 mM Tris, pH7.5, 0.1% Triton X-100, 0.01% BSA, and 1 mM DTT) with 0.3 nM Tb-anti-His (Cisbio, Cat. No. 61HI2TLA), 2 nM His-BTK (SignalChem, Cat. No. […] Unless specified otherwise, all assays were performed in triplicates. The assay mixtures were incubated at room temperature in the dark for 120 min, unless specified otherwise, and the signals were collected using a BioTek Synergy H1 microplate reader to measure the fluorescence emission ratio ([…]) of each well, using a 340-nm excitation filter, a 100-μs delay, and a 200-μs integration time. Raw data from the plate reader were used directly for analysis. The curve-fitting software GraphPad Prism 9 was used to generate graphs and curves and to determine IC50 values.
To measure the binding affinities between PROTACs and BTK, a time-resolved fluorescence resonance energy transfer (TR-FRET) competition binding assay was developed. A BTK tracer was synthesized by conjugating an ibrutinib-based reversible noncovalent binder with the BODIPY-FL dye (FIG. 1). […] In the presence of the BTK tracer, competition assays were performed to measure the binding affinities between BTK and its inhibitors and PROTACs. […] The very weak BTK binding affinities for PS-RC-1, PS-RC-2, PS-RC-3 and PS-RC-4 explain their minimal BTK degradation effects in cells and further support that the observed growth inhibitory effect of PS-RC-1 in Mino cells is unrelated to the BTK pathway.

The target of data set [3] is T4, BTK (Mus musculus, UniProt P35991).
T4 construct: host or cells: A20
Put plainly: Western blotting for BTK in A20 cells. Type of data set: cell-based. The conditions noted are these: A20 cells, 40, 200 and 1000 nM, 24 h, Western blot. How it is done:
(§4) CC-220 is a IKZF1/3 degrader developed by Celgene and used for comparison.
(§5) In contrast, PS-3, whose warhead is further reduced compared with PS-2, loses its ability to function as either a BTK degrader or a potent IKZF1/3 molecular glue. To confirm this observation, BTK degradation induced by PS-1, PS-2, and PS-3 was tested in both a human B lymphocyte cell line Ramos and mouse BALB/c B cell lymphoma line A20, with DD-03-171 from the Gray group as a positive control (FIG. 5).
Background: In western blotting, separated proteins are transferred to a membrane and probed.

Data set [4] has as its target BTK (Homo sapiens, UniProt Q06187). The experiment in a line: Western blotting for BTK in Ramos cells. Type of data set: cell-based. Details: host or cells: Ramos. The conditions noted are these: Ramos cells, 40, 200 and 1000 nM, 24 h, Western blot. How it is done: as §4, §5
Data set [5] concerns Mino cells. The experiment in a line: TMT-based quantitative proteomics in Mino cells, degradation specificity over the proteome. Type of data set: cell-based. The conditions noted are these: 200 nM, 4 h, >2,500 proteins. The protocol:
as §1, §2, §3

Bounds are passed on as bounds.

T2 sequence (Q9UKT9 whole entry): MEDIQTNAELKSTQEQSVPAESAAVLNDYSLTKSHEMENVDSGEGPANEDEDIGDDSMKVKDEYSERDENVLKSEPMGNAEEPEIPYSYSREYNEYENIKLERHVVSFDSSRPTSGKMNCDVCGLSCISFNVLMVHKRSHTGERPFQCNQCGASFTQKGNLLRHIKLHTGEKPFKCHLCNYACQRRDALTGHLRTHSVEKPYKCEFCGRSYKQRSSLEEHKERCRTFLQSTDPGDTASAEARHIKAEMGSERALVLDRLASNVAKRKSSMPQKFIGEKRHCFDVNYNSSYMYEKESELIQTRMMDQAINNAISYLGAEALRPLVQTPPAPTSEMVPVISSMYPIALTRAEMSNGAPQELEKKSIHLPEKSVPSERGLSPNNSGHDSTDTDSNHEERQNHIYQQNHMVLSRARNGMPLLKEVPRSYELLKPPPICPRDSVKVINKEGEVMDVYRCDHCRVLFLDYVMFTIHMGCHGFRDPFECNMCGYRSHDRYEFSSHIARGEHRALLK
T2 sequence (Q96SW2 whole entry): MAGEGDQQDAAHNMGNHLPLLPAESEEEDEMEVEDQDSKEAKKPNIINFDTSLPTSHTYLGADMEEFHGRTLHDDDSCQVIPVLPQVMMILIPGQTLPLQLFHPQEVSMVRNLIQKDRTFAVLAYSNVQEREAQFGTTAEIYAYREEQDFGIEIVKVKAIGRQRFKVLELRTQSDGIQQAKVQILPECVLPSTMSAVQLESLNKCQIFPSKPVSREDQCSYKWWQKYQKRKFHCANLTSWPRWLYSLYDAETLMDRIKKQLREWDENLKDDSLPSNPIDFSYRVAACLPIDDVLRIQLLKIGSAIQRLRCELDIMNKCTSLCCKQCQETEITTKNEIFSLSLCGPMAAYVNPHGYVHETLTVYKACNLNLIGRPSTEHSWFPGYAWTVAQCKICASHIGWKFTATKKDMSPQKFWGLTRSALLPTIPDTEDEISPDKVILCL
T2 sequence (Q16531 whole entry partner): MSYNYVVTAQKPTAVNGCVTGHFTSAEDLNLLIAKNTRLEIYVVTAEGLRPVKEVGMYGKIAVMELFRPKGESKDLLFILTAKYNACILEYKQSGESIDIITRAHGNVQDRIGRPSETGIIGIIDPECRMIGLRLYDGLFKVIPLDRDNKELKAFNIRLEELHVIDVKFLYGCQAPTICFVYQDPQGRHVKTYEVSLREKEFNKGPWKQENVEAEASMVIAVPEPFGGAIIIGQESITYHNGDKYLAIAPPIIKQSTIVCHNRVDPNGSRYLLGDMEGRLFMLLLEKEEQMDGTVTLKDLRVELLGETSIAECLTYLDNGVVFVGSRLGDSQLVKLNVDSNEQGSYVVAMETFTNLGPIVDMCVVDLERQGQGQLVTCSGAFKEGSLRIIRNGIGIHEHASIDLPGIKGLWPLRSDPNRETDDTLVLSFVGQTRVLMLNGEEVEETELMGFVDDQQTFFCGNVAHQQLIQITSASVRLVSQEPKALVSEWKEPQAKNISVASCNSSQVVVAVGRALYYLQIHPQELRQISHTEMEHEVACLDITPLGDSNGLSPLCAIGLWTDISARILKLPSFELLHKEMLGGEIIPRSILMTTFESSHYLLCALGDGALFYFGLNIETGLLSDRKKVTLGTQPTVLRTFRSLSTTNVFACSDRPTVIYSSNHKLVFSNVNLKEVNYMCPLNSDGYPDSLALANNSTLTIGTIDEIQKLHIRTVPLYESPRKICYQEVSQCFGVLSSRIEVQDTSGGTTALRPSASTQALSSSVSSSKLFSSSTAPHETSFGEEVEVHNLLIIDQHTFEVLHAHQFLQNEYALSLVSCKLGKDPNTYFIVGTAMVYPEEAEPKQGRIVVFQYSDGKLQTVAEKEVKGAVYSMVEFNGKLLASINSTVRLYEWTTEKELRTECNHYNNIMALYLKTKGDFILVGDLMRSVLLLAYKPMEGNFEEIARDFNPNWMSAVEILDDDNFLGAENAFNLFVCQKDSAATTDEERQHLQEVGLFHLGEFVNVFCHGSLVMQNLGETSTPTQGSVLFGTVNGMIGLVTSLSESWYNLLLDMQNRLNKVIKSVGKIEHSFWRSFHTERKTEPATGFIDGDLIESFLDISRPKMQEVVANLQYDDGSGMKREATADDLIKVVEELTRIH
Sequence of BTK (Homo sapiens, UniProt Q06187) (Q06187 whole entry): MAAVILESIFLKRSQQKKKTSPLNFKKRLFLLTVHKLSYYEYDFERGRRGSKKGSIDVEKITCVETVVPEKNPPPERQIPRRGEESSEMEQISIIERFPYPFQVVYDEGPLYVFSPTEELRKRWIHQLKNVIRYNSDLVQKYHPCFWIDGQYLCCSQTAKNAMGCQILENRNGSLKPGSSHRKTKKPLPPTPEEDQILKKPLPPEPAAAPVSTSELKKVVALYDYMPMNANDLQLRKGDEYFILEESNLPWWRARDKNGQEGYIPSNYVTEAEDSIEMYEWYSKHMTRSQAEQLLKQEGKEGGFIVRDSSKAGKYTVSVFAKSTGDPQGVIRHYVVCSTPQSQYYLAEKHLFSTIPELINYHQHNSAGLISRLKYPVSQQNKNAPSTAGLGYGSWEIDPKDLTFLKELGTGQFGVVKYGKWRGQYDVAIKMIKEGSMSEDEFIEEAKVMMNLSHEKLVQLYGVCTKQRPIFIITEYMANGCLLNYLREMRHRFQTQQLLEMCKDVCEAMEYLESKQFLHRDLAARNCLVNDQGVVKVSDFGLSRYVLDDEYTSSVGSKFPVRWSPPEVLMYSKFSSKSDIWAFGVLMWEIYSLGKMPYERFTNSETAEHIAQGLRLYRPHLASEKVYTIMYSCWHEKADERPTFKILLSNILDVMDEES
T3 sequence (Q06187 whole entry): as above
T1 sequence (Q13422 whole entry): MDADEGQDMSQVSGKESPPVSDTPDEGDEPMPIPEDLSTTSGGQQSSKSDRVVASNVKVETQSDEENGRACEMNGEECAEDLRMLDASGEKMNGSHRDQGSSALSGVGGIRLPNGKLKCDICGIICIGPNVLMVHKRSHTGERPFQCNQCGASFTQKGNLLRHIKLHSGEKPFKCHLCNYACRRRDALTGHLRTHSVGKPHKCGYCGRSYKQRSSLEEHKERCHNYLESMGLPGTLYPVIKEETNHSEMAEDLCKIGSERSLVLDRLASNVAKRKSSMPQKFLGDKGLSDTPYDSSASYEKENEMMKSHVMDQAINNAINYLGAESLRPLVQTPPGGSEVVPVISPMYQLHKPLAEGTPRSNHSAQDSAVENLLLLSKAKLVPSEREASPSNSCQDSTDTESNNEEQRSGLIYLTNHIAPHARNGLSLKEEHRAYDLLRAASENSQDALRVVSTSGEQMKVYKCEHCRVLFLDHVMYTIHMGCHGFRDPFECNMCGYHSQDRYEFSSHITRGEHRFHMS
T1 sequence (Q96SW2 whole entry): as the sequence (Q96SW2 whole entry) above
T1 sequence (Q16531 whole entry partner): as the sequence (Q16531 whole entry partner) above
T4 sequence (P35991 whole entry): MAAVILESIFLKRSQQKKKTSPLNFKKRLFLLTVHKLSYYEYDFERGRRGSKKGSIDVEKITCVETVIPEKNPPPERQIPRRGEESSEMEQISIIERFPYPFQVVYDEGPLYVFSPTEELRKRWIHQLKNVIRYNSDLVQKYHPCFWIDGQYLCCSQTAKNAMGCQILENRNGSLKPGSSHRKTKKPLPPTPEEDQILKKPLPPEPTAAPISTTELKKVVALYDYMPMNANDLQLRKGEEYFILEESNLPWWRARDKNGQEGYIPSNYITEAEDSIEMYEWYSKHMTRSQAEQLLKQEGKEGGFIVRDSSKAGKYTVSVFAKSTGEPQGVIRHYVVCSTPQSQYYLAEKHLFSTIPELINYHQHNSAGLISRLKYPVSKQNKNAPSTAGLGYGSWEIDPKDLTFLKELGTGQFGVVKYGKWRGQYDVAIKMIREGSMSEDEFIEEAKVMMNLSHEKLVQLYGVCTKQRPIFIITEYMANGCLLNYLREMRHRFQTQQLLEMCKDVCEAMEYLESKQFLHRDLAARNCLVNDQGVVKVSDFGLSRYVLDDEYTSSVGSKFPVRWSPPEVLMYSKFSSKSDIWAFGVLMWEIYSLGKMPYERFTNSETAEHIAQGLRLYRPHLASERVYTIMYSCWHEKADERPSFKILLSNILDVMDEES

As to `O=C1CCC(N2C(=O)c3cccc(NCC(=O)N4CCN(c5ccc(Nc6nccc(Oc7ccccc7)n6)cc5)CC4)c3C2=O)C(=O)N1` (centres unmarked) [PS-2, 2-(2,6-Dioxopiperidin-3-yl)-4-((2-oxo-2-(4-(4-((4-phenoxypyrimidin-2-yl)amino)phenyl)piperazin-1-yl)ethyl)amino)isoindoline-1,3-dione], the half-life in data set [1] is around 20 min. The IC50 in the data set on Mino cells [2] amounted to 77 nM. Further, the “degradation of IKZF1” value at IKZF1 is reported as around 50%. Also, the “degradation of IKZF3” value on IKZF3 is listed as above 60%. Besides, the “binding to BTK (result in words)” value on His-BTK is on record as “almost no binding to BTK”. For the same compound, the “BTK degradation (result in words)” value at BTK [3] and on BTK [4] was “potent BTK degradation” each time. For the same compound, the “other proteins downregulated by at least 25% with statistical significance” value in the data set on Mino cells [5] was “No other proteins are downregulated”.

Values taken from patent US20240383910A1, “SMALL MOLECULE BTK DEGRADERS AND METHODS OF USE THEREOF” (Baylor College of Medicine, priority 2023, published 2024).
